Laboratory results as given in EPA's ToxValDB 9.5 (doi:10.2903/j.efsa.2010.1645).
Values after ≈ are worked out from the molar mass of the structure shown.

What was measured:
Apis mellifera = settings: acute, duration: 48 hours, mortality
Bibionidae = settings: chronic/long-term; duration: 28 days; development
Daphnia magna = settings: chronic/long-term; duration: 21 days; reproduction
Folsomia candida = settings: chronic/long-term; duration: 28 days; reproduction
Glycine sp. = settings: chronic/long-term; seedling emergence
Oncorhynchus mykiss = settings: acute; duration: 96 hours; mortality
Pimephales promelas = settings: chronic/long-term; duration: 35 days; growth
Typhlodromus pyri = assay: LR50; higher = less toxic; settings: acute; duration: 7 days; mortality

CC(C)[C@@H](Nc1ccc(C(F)(F)F)cc1Cl)C(=O)OC(C#N)c1cccc(Oc2ccccc2)c1 (stereo not given in full) [tau-Fluvalinate]
LD50 (Apis mellifera; dermal): 12 µg/piece
LD50 (Apis mellifera; oral, unspecified): 12.6 µg/piece
NOEC (Bibionidae): 0.00024 mg/L
NOEC (Daphnia magna): 2.1e-05 mg/L
NOEC (Folsomia candida): 9.6 mg/kg
NOEC (Glycine sp.): < 6.25 g/ha
LC50 (Oncorhynchus mykiss): 7.94 ng/mL (≈ 0.0158 µM)
NOEC (Pimephales promelas): 6.4e-05 mg/L
NOAEL (Rattus norvegicus; chronic, duration: 2 years, body weight): 0.5 mg/kg-day
NOAEL (Rattus norvegicus; developmental, development): 5 mg/kg-day
NOAEL (Rattus norvegicus; short-term, duration: 28 days, clinical signs): 6 mg/kg-day
NOAEL (Rattus norvegicus; subchronic, duration: 90 days, oral, diet, body weight): 1 mg/kg-day
LC50 (Tagia sp.; acute, duration: 14 days, mortality): > 1000 mg/kg
NOEC (Tagia sp.; chronic/long-term, duration: 56 days, reproduction): > 2.88 mg/kg
LR50 (Typhlodromus pyri): 0.049 g/ha
